Assay results: patent publication US9999619B2, “Piperidin-4-yl azetidine derivatives as JAK1 inhibitors” (Incyte Corporation, priority 2010, dated 2018)

Key:
Format in all cases: biochemical
[1] = molecular target: Jak2 (a.a. 828-1132) (Homo sapiens (Human), UniProt O60674); assay: In vitro JAK kinase assay (HTRF, phosphorylation of a biotinylated peptide), JAK2; details: measured at 1 mM ATP
Outline: (§1)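 Phosphorylation of a biotinylated peptide by purified His-tagged JAK catalytic domains (insect-cell baculovirus expression) ran 1 hr at room temperature. After stopping with EDTA, Eu-Py20 and SA-APC were bound for 40 minutes and HTRF measured.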

[2] = molecular target: human JAK1 (a.a. 837-1142); assay: In vitro JAK kinase assay (HTRF, phosphorylation of a biotinylated peptide), JAK1; details: ratio of JAK2 IC50 to JAK1 IC50, measured at 1 mM ATP
Outline: as §1

[3] = molecular target: human JAK1 (a.a. 837-1142) (Homo sapiens, UniProt P23458); assay: as above; details: measured at 1 mM ATP
Outline: as §1

Jak2 (a.a. 828-1132), sequence (O60674 828-1132): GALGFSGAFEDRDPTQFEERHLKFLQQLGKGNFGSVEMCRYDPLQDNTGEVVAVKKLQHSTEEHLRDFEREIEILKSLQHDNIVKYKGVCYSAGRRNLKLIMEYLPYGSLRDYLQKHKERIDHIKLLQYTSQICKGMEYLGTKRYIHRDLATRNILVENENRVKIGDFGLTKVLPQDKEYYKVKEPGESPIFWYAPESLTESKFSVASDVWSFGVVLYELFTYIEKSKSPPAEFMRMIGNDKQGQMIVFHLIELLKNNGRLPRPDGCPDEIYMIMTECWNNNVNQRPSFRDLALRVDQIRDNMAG

| Compound | IC50 [1] [nM] | IC50 Ratio JAK2/JAK1 [2] | IC50 [3] [nM] |
| --- | --- | --- | --- |
| COC(=O)c1ccc(NC(=O)N2CCC(N3CC(CC#N)(n4cc(-c5ncnc6[nH]ccc56)cn4)C3)CC2)c(F)c1 [Example 208, methyl 4-{[(4-{3-(cyanomethyl)-3-[4-(7H-pyrrolo[2,3-d]pyrimidin-4-yl)-1H-pyrazol-1-yl]azetidin-1-yl}piperidin-1-yl)carbonyl]amino}-3-fluorobenzoate] | 10 to 50 | 4.8 | ≤ 5 |
| N#CCC1(n2cc(-c3ncnc4[nH]ccc34)cn2)CN(C2CCN(C(=O)Nc3ccccc3C(F)(F)F)CC2)C1 [Example 157, 4-{3-(cyanomethyl)-3-[4-(7H-pyrrolo[2,3-d]pyrimidin-4-yl)-1H-pyrazol-1-yl]azetidin-1-yl}-N-[2-(trifluoromethyl)phenyl]piperidine-1-carboxamide] | 50 to 100 | 14.8 | ≤ 5 |
| COc1ccccc1NC(=O)N1CCC(N2CC(CC#N)(n3ccc(-c4ncnc5[nH]ccc45)c3)C2)CC1 [Example 288, 4-{3-(cyanomethyl)-3-[3-(7H-pyrrolo[2,3-d]pyrimidin-4-yl)-1H-pyrrol-1-yl]azetidin-1-yl}-N-(2-methoxyphenyl)piperidine-1-carboxamide] | ≤ 10 | 9.0 | ≤ 5 |
| N#CCC1(n2cc(-c3ncnc4[nH]ccc34)cn2)CN(C2CCN(C(=O)Nc3cccc(Cl)c3F)CC2)C1 [Example 177, N-(3-chloro-2-fluorophenyl)-4-{3-(cyanomethyl)-3-[4-(7H-pyrrolo[2,3-d]pyrimidin-4-yl)-1H-pyrazol-1-yl]azetidin-1-yl}piperidine-1-carboxamide] | ≤ 10 | 8.5 | ≤ 5 |
| N#CCC1(n2cc(-c3ncnc4[nH]ccc34)cn2)CN(C2CCN(Cc3c(F)cccc3Cl)CC2)C1 [Example 227, {1-[1-(2-chloro-6-fluorobenzyl)piperidin-4-yl]-3-[4-(7H-pyrrolo[2,3-d]pyrimidin-4-yl)-1H-pyrazol-1-yl]azetidin-3-yl}acetonitrile] | ≤ 10 | 7.9 | ≤ 5 |
| CCn1nccc1NC(=O)N1CCC(N2CC(CC#N)(n3cc(-c4ncnc5[nH]ccc45)cn3)C2)CC1 [Example 196, 4-{3-(cyanomethyl)-3-[4-(7H-pyrrolo[2,3-d]pyrimidin-4-yl)-1H-pyrazol-1-yl]azetidin-1-yl}-N-(1-ethyl-1H-pyrazol-5-yl)piperidine-1-carboxamide] | 50 to 100 | 9.9 | 5 to 20 |
| COc1c(Br)cc(C(=O)N2CCC(N3CC(CC#N)(n4cc(-c5ncnc6[nH]ccc56)cn4)C3)CC2)cc1Br [Example 50, {1-[1-(3,5-dibromo-4-methoxybenzoyl)piperidin-4-yl]-3-[4-(7H-pyrrolo[2,3-d]pyrimidin-4-yl)-1H-pyrazol-1-yl]azetidin-3-yl}acetonitrile] | ≤ 10 | 6.9 | ≤ 5 |
| COc1ncccc1NC(=O)N1CCC(N2CC(CC#N)(n3cc(-c4ncnc5[nH]ccc45)cn3)C2)CC1 [Example 204, 4-{3-(cyanomethyl)-3-[4-(7H-pyrrolo[2,3-d]pyrimidin-4-yl)-1H-pyrazol-1-yl]azetidin-1-yl}-N-(2-methoxypyridin-3-yl)piperidine-1-carboxamide] | 10 to 50 | 4.0 | ≤ 5 |
| N#CCC1(n2cc(-c3ncnc4[nH]ccc34)cn2)CN(C2CCN(C(=O)c3ccc(-c4cccc5cnccc45)c(F)c3)CC2)C1 [Example 130, {1-[1-(3-fluoro-4-isoquinolin-5-ylbenzoyl)piperidin-4-yl]-3-[4-(7H-pyrrolo[2,3-d]pyrimidin-4-yl)-1H-pyrazol-1-yl]azetidin-3-yl}acetonitrile] | ≤ 10 | 7.1 | ≤ 5 |
| COC(=O)c1ccccc1NC(=O)N1CCC(N2CC(CC#N)(n3cc(-c4ncnc5[nH]ccc45)cn3)C2)CC1 [Example 206, methyl 2-{[(4-{3-(cyanomethyl)-3-[4-(7H-pyrrolo[2,3-d]pyrimidin-4-yl)-1H-pyrazol-1-yl]azetidin-1-yl}piperidin-1-yl)carbonyl]amino}benzoate] | ≤ 10 | 1.6 | ≤ 5 |
| N#CCC1(n2cc(-c3ncnc4[nH]ccc34)cn2)CN(C2CCN(Cc3cc(Br)nc(Br)c3)CC2)C1 [Example 225, {1-{1-[(2,6-dibromopyridin-4-yl)methyl]piperidin-4-yl}-3-[4-(7H-pyrrolo[2,3-d]pyrimidin-4-yl)-1H-pyrazol-1-yl]azetidin-3-yl}acetonitrile] | 10 to 50 | 3.8 | ≤ 5 |
| N#CCC1(n2cc(-c3c(C#N)cnc4[nH]ccc34)cn2)CN(C2CCN(C(=O)c3ccc(C#N)c(F)c3)CC2)C1 [Example 334, 4-{1-[1-[1-(4-cyano-3-fluorobenzoyl)piperidin-4-yl]-3-(cyanomethyl)azetidin-3-yl]-1H-pyrazol-4-yl}-1H-pyrrolo[2,3-b]pyridine-5-carbonitrile] | > 100 | 4.3 | 20 to 30 |
| N#CCC1(n2cc(-c3ncnc4[nH]ccc34)cn2)CN(C2CCN(C(=O)Nc3cc(F)cc(F)c3)CC2)C1 [Example 175, 4-{3-(cyanomethyl)-3-[4-(7H-pyrrolo[2,3-d]pyrimidin-4-yl)-1H-pyrazol-1-yl]azetidin-1-yl}-N-(3,5-difluorophenyl)piperidine-1-carboxamide] | ≤ 10 | 3.6 | ≤ 5 |
| N#CCC1(n2ccc(-c3ncnc4[nH]ccc34)c2)CN(C2CCN(C(=O)c3cccs3)CC2)C1 [Example 271, {3-[3-(7H-pyrrolo[2,3-d]pyrimidin-4-yl)-1H-pyrrol-1-yl]-1-[1-(2-thienylcarbonyl)piperidin-4-yl]azetidin-3-yl}acetonitrile] | 10 to 50 | 7.8 | ≤ 5 |
| N#CCC1(n2cc(-c3ncnc4[nH]ccc34)cn2)CN(C2CCN(Cc3cc(Cl)cc(Cl)c3)CC2)C1 [Example 210, {1-[1-(3,5-dichlorobenzyl)piperidin-4-yl]-3-[4-(7H-pyrrolo[2,3-d]pyrimidin-4-yl)-1H-pyrazol-1-yl]azetidin-3-yl}acetonitrile] | ≤ 10 | 4.3 | ≤ 5 |
| N#CCC1(n2cc(-c3ncnc4[nH]ccc34)cn2)CN(C2CCN(C(=O)c3cc(Cl)cc(Cl)c3)CC2)C1 [Example 24, {1-[1-(3,5-dichlorobenzoyl)piperidin-4-yl]-3-[4-(7H-pyrrolo[2,3-d]pyrimidin-4-yl)-1H-pyrazol-1-yl]azetidin-3-yl}acetonitrile] | ≤ 10 | 6.6 | ≤ 5 |
| N#CCC1(n2cc(-c3ncnc4[nH]ccc34)cn2)CN(C2CCN(C(=O)c3cccc(C(F)(F)F)c3)CC2)C1 [Example 22, (3-[4-(7H-pyrrolo[2,3-d]pyrimidin-4-yl)-1H-pyrazol-1-yl]-1-{1-[3-(trifluoromethyl)benzoyl]piperidin-4-yl}azetidin-3-yl)acetonitrile] | 10 to 50 | 3.2 | 5 to 20 |
